From patent publication US5847125A, “Amino acid derivatives with anticholecystokinin activity” (James Black Foundation Limited, priority 1992, dated 1998) come the findings set out here.

Read-outs that look alike come from different tables or passages of the source.

In test [1] the target is T1, CCK (gallbladder) receptor (Cavia porcellus, UniProt Q63931).
T1 construct: Isolated, strip preparations were prepared from gall-bladders removed from male Dunkin-Hartley guinea-pigs; from tissue; host or cells: guinea-pig gall-bladder strips
T1 sequence (Q63931 1-430): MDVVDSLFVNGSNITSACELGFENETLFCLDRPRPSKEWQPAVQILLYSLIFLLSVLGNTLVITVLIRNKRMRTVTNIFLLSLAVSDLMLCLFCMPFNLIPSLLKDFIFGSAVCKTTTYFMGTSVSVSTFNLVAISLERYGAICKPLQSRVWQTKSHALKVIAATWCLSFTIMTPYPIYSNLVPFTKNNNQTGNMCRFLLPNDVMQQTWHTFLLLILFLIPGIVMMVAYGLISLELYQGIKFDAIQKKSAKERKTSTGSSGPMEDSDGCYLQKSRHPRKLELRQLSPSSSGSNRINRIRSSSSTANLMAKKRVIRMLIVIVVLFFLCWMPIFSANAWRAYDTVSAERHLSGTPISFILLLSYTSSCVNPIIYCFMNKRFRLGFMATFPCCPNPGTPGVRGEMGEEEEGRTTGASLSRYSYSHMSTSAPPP
Nature of the test: CCK-receptor bioassay, isolated guinea-pig gall-bladder strip preparations, CCK-8 as agonist. The class given is cell-based, male Dunkin-Hartley guinea-pigs. The following applies: negative log10 of equilibrium dissociation constant, guinea-pig gall-bladder strips, CCK-8 agonist, test compound incubated for 60 minutes, 37° C; for Kb: read-out: pKB versus CCK (gallbladder) (converted). The method, then: The compounds of the examples were assayed using a CCK-receptor bioassay as follows:
Isolated, strip preparations were prepared from gall-bladders removed from male Dunkin-Hartley guinea-pigs (250-500 g body weight) according to the method of La Morte, W. W., et al., J.P.E.T., 217, (3), 638-644 (1981).
The complete gall-bladder is removed and opened along the longitudinal axis. Strips measuring 3 mm in the longitudinal axis and 1 mm in the transverse axis are cut and then tied with cotton to stainless steel wires. The preparation is connected to a GRASS FTO3 isometric transducer under an initial loading tension of 1 g and is immersed in 20 mls of Krebs solution maintained at 37° C. and gassed with 95% O2 /5% CO2. The Krebs solution is as detailed above in connection with the fundus assay, except that the Ca^2+ concentration is decreased to 0.5 mM. After 30 mins the preparation is washed. Drug addition begins after an initial 90 min stabilisation period. Responses are measured as changes in tension from that immediately prior to any drug addition. Single cumulative agonist concentration-effect curves, using CCK-8 as agonist, are obtained on each preparation in the absence and presence of test compound which has been incubated for 60 minutes. The antagonist activity of the test compound is estimated and expressed as the negative logarithm (base 10) of the equilibrium dissociation constants (pKB) using the modifications of standard competitive analysis described by Black et al., Br. J. Pharmacol.,86,571-579, (1985) and Shankley et al., Br. J. Pharmacol.,94,264-274 (1988).

The target in another test is T2, CCKA (Cavia porcellus, UniProt Q63931).
T2 construct: The pancreatata were removed from male guinea-pigs (200-300 g; Dunkin Hartley); from tissue; host or cells: guinea-pig pancreas membranes
T2 sequence (Q63931 1-430): T1 sequence (Q63931 1-430)
Nature of the test: CCKA binding assay, pancreas membranes, [125I]-CCK8(S). Also noted: species or system male guinea-pigs (Dunkin Hartley). The method, then:
The compounds of the examples were also tested in a CCKA binding assay as follows:
The pancreatata were removed from male guinea-pigs (200-300 g; Dunkin Hartley) and placed in ice-cold HEPES buffer (pH 7.2@21°±3°). The pancreatata were homogenised in 40 ml ice-cold HEPES buffer using a polytron (Brinkmann, PT10, setting 10) 4×1 second. The homogenate was centrifuged at 39,800 g for 15 min at 4°. The supernatant was discarded and the pellet re-suspended using a Teflon-in-glass homogeniser in 20 volumes of fresh buffer and re-centrifuged as above. The final pellet was re-suspended using a Teflon-in-glass homogeniser to a tissue concentration of 1 mg ml^31 1 (original wet weight), and filtered through 500 μm pore-size Nytex mesh.
The membranes (400 μl; containing 0.375 μM PD134,308) are incubated for 150 minutes at 21°±3° in a final volume of 0.5 ml with HEPES buffer containing [^125 I]--CCK8 (S) (50 μl; 200 pM) and competing compound. Total and non-specific binding of [^125 I]--CCK8 (S) are defined using 50 μl of buffer and 50 μl of 100 nM L-364,718 respectively. The assay is terminated by rapid filtration through pre-soaked Whatman GF/B filters using a Brandell Cell Harvester. The filters were washed (3×3 ml) with ice-cold 50 mM Tris HCl (pH 7.4 at 4°) and bound radioactivity is determined by counting (1 min) in a gamma counter.

For a further test, the target named is T3, CCKB receptor (Mus musculus, UniProt P56481).
T3 construct: CCKB receptor in mouse cortical membranes; from tissue; host or cells: mouse cerebral cortex membranes (male mice, Charles River)
T3 sequence (P56481 1-453): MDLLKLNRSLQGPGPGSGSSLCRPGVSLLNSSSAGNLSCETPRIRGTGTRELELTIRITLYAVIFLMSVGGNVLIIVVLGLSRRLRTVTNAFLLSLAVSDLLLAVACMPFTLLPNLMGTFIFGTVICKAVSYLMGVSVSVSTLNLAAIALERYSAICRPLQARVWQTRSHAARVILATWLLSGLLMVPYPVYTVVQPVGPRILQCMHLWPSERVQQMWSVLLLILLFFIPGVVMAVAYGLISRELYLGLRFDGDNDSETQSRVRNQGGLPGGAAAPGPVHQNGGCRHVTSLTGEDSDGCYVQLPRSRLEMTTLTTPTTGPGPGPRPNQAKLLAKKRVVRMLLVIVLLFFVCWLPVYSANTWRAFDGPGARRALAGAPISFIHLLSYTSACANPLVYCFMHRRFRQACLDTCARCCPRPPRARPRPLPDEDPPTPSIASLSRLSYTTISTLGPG
Nature of the test: CCKB radioligand binding assay in mouse cortical membranes, [125I] CCK-8S (selectivity testing). Also noted: species or system male mice. As to conditions: [125I] CCK-8S 200 pM, 150 min at 21°; for Ki: pH 7.2, non-specific binding L-365,260, read-out: pKi CCKB (converted). The method, then:
The compounds were assayed for selectivity with respect to the CCKB receptor in mouse cortical membranes by means of a radioligand binding assay. The procedure was as follows:
The whole brains from male mice (CDI 22-25 g; Charles River) were removed and placed in ice-cold buffer (pH 7.2 at 21°±3° C.) of the following composition (mM); 10 HEPES, 130 NaCl, 4.7 KCl, 5 MgCl2, 1 EDTA and containing 0.25 g. 1^-1 bacitracin.
The cortex was dissected, weighed and homogenised in 40 ml ice-cold buffer using a Teflon-in-glass homogeniser. The homogenate was centrifuged at 39,800 g for 20 min at 4° C., the supernatant discarded and the pellet resuspended by homogenisation in fresh buffer. The homogenate was recentrifuged (39,800 g; 20 min at 4° C.) and the final pellet was resuspended in HEPES buffer to give a tissue concentration of 2 mg ml^-1 (original wet weight).
The membranes (400 μl) were incubated for 150 min at 21°±3° C. in a final volume of 0.5 ml with HEPES buffer containing [^125 I] CCK-8S (0.05 ml; 200 pM NEN 2200Ci.mmol^-1) and competing compound. Total and non-specific binding of [^125 I] CCK-8S were defined using 0.05 ml of buffer and 0.05 ml of 10 mM L-365,260, respectively. The assay was terminated by rapid filtration through pre-soaked Whatman GF/B filters using a Brandell Cell harvester. The filters were washed (3×3 ml) with ice-cold 50 mM Tris-HCl (pH 7.4 at 4° C.) and bound radioactivity determined by counting (1 min.) in a gamma counter.

Where [2] appears, read: guinea-pig pancreas membranes, [125I]-CCK8(S) 200 pM, 0.375 μM PD134,308, 150 minutes at 21°, non-specific binding 100 nM L-364,718, read-out: pKi CCKλ (converted).

Turning to `CCCCCN(CCCCC)C(=O)[C@@H](CCC(=O)O)NS(=O)(=O)c1ccc2ccccc2c1` [Example 2, 2-Naphthalenesulphonyl D-glutamyl dipentylamide], the Kb in test [1] was 1 µM. The results for the Ki on CCKA (setting [2]) and on CCKB receptor were 0.158 µM and 3.98 µM, respectively.

For the compound `CC(C)(C)CCNC(=O)[C@H](CC(=O)O)NS(=O)(=O)c1ccc2ccccc2c1` [Example 6, 2-Naphthalenesulphonyl-L-aspartyl (3,3-dimethyl)-butylamide], the Kb in test [1] was 0.501 µM. The Ki at CCKA (setting [2]) was 0.501 µM; on CCKB receptor it was 25.1 µM.

`O=C(O)C[C@H](NS(=O)(=O)c1ccc2ccccc2c1)C(=O)N1CCC2(CC1)OCCO2` [Example 14, 2-Naphthalenesulphonyl-L-aspartyl 1,4-dioxa-8-azaspiro-[5.4]decylamide] showed a Ki on CCKA of 10 µM.

As to `CCCCN(CCCC)C(=O)[C@H](CC(=O)O)NS(=O)(=O)c1ccc2ccccc2c1` [Example 3, 2-Naphthalenesulphonyl-L-aspartyl dibutylamide], the Kb in test [1] was 0.631 µM. Also, the results for the Ki on CCKA (setting [2]) and on CCKB receptor were 1 µM and 25.1 µM, respectively.

With `O=C(O)C[C@H](NS(=O)(=O)c1ccc2ccccc2c1)C(=O)NC1CCCCCCCCCCC1` [Example 16, 2-Naphthalenesulphonyl-L-aspartyl cyclododecylamide], the Kb in test [1] is 0.0794 µM. In addition, the Ki is 0.0398 µM at CCKA (setting [2]) and 10 µM at CCKB receptor.

Regarding `O=C(O)C[C@H](NS(=O)(=O)c1ccc2ccccc2c1)C(=O)NCCC1CCCCC1` [Example 11, 2-Naphthalenesulphonyl-L-aspartyl 2-cyclohexylethylamide], in test [1], the Kb is 0.0794 µM. Also, the Ki on CCKA (setting [2]) was 0.158 µM; at CCKB receptor, 25.1 µM.

Regarding `O=C(O)C[C@H](NS(=O)(=O)c1ccc2ccccc2c1)C(=O)NCCC12CC3CC(CC(C3)C1)C2` [Example 12, 2-Naphthalenesulphonyl-L-aspartyl 2-(1-adamantyl) ethylamide], the Kb in test [1] is 0.0501 µM. Also, the Ki at CCKA (setting [2]) was 0.126 µM; at CCKB receptor, 7.94 µM.

Regarding `CCCCCC(CCCCC)NC(=O)[C@H](CC(=O)O)NS(=O)(=O)c1ccc2ccccc2c1` [Example 9, 2-Naphthalenesulphonyl-L-aspartyl (1-pentyl)hexylamide], in test [1], the Kb is 0.2 µM. In addition, the Ki on CCKA (setting [2]) is 0.398 µM; at CCKB receptor, 3.98 µM.

With `O=C(O)C[C@H](NS(=O)(=O)c1ccc2ccccc2c1)C(=O)N1CCC2(CCCC2)CC1` [Example 13, 2-Naphthalenesulphonyl-L-aspartyl 3-azaspiro[5.4]decylamide], the Kb in test [1] is 6.31 µM. Moreover, the Ki was 6.31 µM at CCKA (setting [2]) and 10 µM at CCKB receptor.

As to `CCCCCCN(C)C(=O)[C@H](CC(=O)O)NS(=O)(=O)c1ccc2ccccc2c1` [Example 7, 2-Naphthalenesulphonyl-L-aspartyl N-(methyl)hexylamide], in test [1], the Kb was 0.316 µM. Moreover, the Ki at CCKA (setting [2]) is 3.16 µM; at CCKB receptor, 50.1 µM.

`CCCCCN(CCCCC)C(=O)[C@@H](CC(=O)O)NS(=O)(=O)c1ccc2ccccc2c1` [Example 18, 2-Naphthalenesulphonyl-D-aspartyl dipentylamide]: in test [1], the Kb was 0.158 µM. Moreover, the results for the Ki on CCKA (setting [2]) and on CCKB receptor were 0.631 µM and 3.16 µM, respectively.

For the compound `CCCCCN(CCCOC)C(=O)[C@H](CC(=O)O)NS(=O)(=O)c1ccc2ccccc2c1` [Example 8, 2-Naphthalenesulphonyl-L-aspartyl N-(3-methoxypropyl)pentylamide], the “pKB versus CCK (gallbladder)” value in test [1] amounted to 6.7. The “pKi CCKλ” value at CCKA (guinea-pig pancreas membranes, [125I]-CCK8(S) 200 pM, 0.375 μM PD134,308, 150 minutes at 21°, non-specific binding 100 nM L-364,718) is on record as 5.6. Moreover, the “pKi CCKB” value on CCKB receptor (pH 7.2, non-specific binding L-365,260) is on record as 4.4.

With `O=C(O)C[C@H](NS(=O)(=O)c1ccc2ccccc2c1)C(=O)N1CC2CCC(CC2)C1` [Example 15, 2-Naphthalenesulphonyl-L-aspartyl 3-azabicyclo-[3.2.2]nonylamide], the Ki at CCKA (setting [2]) was 10 µM; on CCKB receptor, 25.1 µM.

As for `CCCCC(CC)CN(CC(CC)CCCC)C(=O)[C@H](CC(=O)O)NS(=O)(=O)c1ccc2ccccc2c1` (stereo partly drawn) [Example 17, 2-Naphthalenesulphonyl-L-aspartyl di(2-ethyl)hexylamide], the Ki was 1.26 µM on CCKA (setting [2]) and 2 µM on CCKB receptor.

For the compound `CCCCCOC(=O)[C@H](CC(=O)O)NS(=O)(=O)c1ccc2ccccc2c1` [Example 20, 2-Naphthalenesulphonyl-L-aspartyl pentyl ester], the values for the Ki at CCKA (setting [2]) and at CCKB receptor were 2 µM and 20 µM, respectively.
